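Test compounds were applied to cells in 96-well plates for 48 hours at 5 doses. GI50 is the concentration that inhibits growth by half.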 Calls of active or inactive are those of the source. Rule as the data show it: active = GI50 up to about 1.1 µM and inactive = higher.
Key:
Assay in all cases: inhibition of tumour cell growth, NCI panel, 48 h
CAKI-1 = tested on: CAKI-1
CCRF-CEM = tested on: CCRF-CEM
COLO 205 = tested on: COLO 205
HOP-62 = tested on: HOP-62
IGROV-1 = tested on: IGROV-1
MCF7 = tested on: MCF7
NCI-H226 = tested on: NCI-H226
NCI-H460 = tested on: NCI-H460
OVCAR-4 = tested on: OVCAR-4
OVCAR-8 = tested on: OVCAR-8
PC-3 = tested on: PC-3
SF-295 = tested on: SF-295
SF-539 = tested on: SF-539
SK-MEL-5 = tested on: SK-MEL-5
SW-620 = tested on: SW-620
U-251 = tested on: U-251
UACC-257 = tested on: UACC-257
UACC-62 = tested on: UACC-62
UO-31 = tested on: UO-31
RXF 393 = tested on: RXF 393

In the case of `COC(=O)Nc1nc(=O)c2cc(OC)c(OC)cc2[nH]1`, the GI50 (CAKI-1) is reported as 20.2 µM (inactive), the GI50 (CCRF-CEM) is reported as 6.04 µM (inactive) and the GI50 (COLO 205) is reported as 4.4 µM (inactive). The GI50 (HOP-62) was 44.6 µM (inactive), the GI50 (IGROV-1) was 15.2 µM (inactive) and the GI50 (MCF7) was 6.15 µM (inactive). The GI50 (NCI-H226) was 37.6 µM (inactive), the GI50 (NCI-H460) was 9.33 µM (inactive) and the GI50 (OVCAR-4) was > 100 µM (inactive). For the same compound, the GI50 (OVCAR-8) was 47.6 µM (inactive), the GI50 (PC-3) was 3.29 µM (inactive) and the GI50 (SF-295) was 4.66 µM (inactive). For the same compound, the GI50 (SF-539) was 24.2 µM (inactive), the GI50 (SK-MEL-5) was 6.35 µM (inactive) and the GI50 (SW-620) was 3.85 µM (inactive). The GI50 (U-251) was 61.5 µM (inactive), the GI50 (UACC-257) was > 100 µM (inactive) and the GI50 (UACC-62) was 6.56 µM (inactive). For the same compound, the GI50 (UO-31) was 49.4 µM (inactive).

For `CC(NC(CC12CC3CC(CC(C3)C1)C2)C(N)=O)c1ccccc1` (configuration not stated), the GI50 (CAKI-1) was 23.3 µM (inactive), the GI50 (CCRF-CEM) was 19.1 µM (inactive) and the GI50 (COLO 205) was 12.6 µM (inactive). For the same compound, the GI50 (HOP-62) was 28.1 µM (inactive), the GI50 (IGROV-1) was 39.7 µM (inactive) and the GI50 (MCF7) was 35 µM (inactive). The GI50 (NCI-H460) was 17.4 µM (inactive), the GI50 (OVCAR-4) was 33.7 µM (inactive) and the GI50 (OVCAR-8) was 23.6 µM (inactive). For the same compound, the GI50 (PC-3) was 27 µM (inactive), the GI50 (SF-295) was 13 µM (inactive) and the GI50 (SK-MEL-5) was 13.4 µM (inactive). For the same compound, the GI50 (SW-620) was 31.1 µM (inactive), the GI50 (U-251) was 13.3 µM (inactive) and the GI50 (UACC-257) was 15.2 µM (inactive). For the same compound, the GI50 (UACC-62) was 20.3 µM (inactive) and the GI50 (UO-31) was 19.2 µM (inactive).

`c1ccc(C(=NCCC2CNc3ccccc32)c2ccccc2)cc1` (configuration not stated) was tested, and the GI50 (CAKI-1) was > 100 µM (inactive), the GI50 (CCRF-CEM) was > 100 µM (inactive) and the GI50 (COLO 205) was > 100 µM (inactive). For the same compound, the GI50 (HOP-62) was > 100 µM (inactive), the GI50 (IGROV-1) was 89.3 µM (inactive) and the GI50 (MCF7) was > 100 µM (inactive). For the same compound, the GI50 (NCI-H460) was > 100 µM (inactive), the GI50 (OVCAR-4) was > 100 µM (inactive) and the GI50 (OVCAR-8) was > 100 µM (inactive). The GI50 (PC-3) was > 100 µM (inactive), the GI50 (RXF 393) was > 100 µM (inactive) and the GI50 (SF-295) was > 100 µM (inactive). The GI50 (SK-MEL-5) was > 100 µM (inactive), the GI50 (SW-620) was > 100 µM (inactive) and the GI50 (U-251) was > 100 µM (inactive). For the same compound, the GI50 (UACC-257) was > 100 µM (inactive), the GI50 (UACC-62) was > 100 µM (inactive) and the GI50 (UO-31) was > 100 µM (inactive).

For `O=C1Nc2ccccc2/C1=N/Nc1nc(-c2ccccc2)cs1`, the GI50 (CAKI-1) was 18.3 µM (inactive), the GI50 (COLO 205) was 42.4 µM (inactive) and the GI50 (HOP-62) was 18.2 µM (inactive). For the same compound, the GI50 (IGROV-1) was 21.1 µM (inactive), the GI50 (MCF7) was 27.2 µM (inactive) and the GI50 (NCI-H226) was > 100 µM (inactive). The GI50 (NCI-H460) was 14.7 µM (inactive), the GI50 (OVCAR-4) was 40.7 µM (inactive) and the GI50 (OVCAR-8) was 40.1 µM (inactive). The GI50 (PC-3) was 19.2 µM (inactive), the GI50 (SF-295) was 24.5 µM (inactive) and the GI50 (SF-539) was 10.1 µM (inactive). The GI50 (SK-MEL-5) was 25.8 µM (inactive), the GI50 (SW-620) was > 100 µM (inactive) and the GI50 (U-251) was 24.2 µM (inactive). For the same compound, the GI50 (UACC-257) was 56.2 µM (inactive) and the GI50 (UO-31) was 24.7 µM (inactive).

`N#Cc1sc2c(c1O)c(=O)n(-c1ccccc1)c(=S)n2-c1ccccc1` was tested, and the GI50 (CCRF-CEM) was > 10 µM (inactive), the GI50 (COLO 205) was > 100 µM (inactive) and the GI50 (IGROV-1) was > 100 µM (inactive). The GI50 (MCF7) was > 100 µM (inactive), the GI50 (NCI-H226) was > 100 µM (inactive) and the GI50 (NCI-H460) was > 100 µM (inactive). The GI50 (OVCAR-4) was > 100 µM (inactive), the GI50 (OVCAR-8) was > 100 µM (inactive) and the GI50 (RXF 393) was > 100 µM (inactive). For the same compound, the GI50 (SF-295) was > 100 µM (inactive), the GI50 (SK-MEL-5) was > 100 µM (inactive) and the GI50 (SW-620) was > 100 µM (inactive). For the same compound, the GI50 (U-251) was > 100 µM (inactive), the GI50 (UACC-257) was > 100 µM (inactive) and the GI50 (UACC-62) was > 100 µM (inactive). For the same compound, the GI50 (UO-31) was > 100 µM (inactive).

In the case of `COc1cccc2c1C(=O)c1c(O)c3c(c(O)c1C2=O)C[C@](O)(C(=O)CO)CC3OC1CC(N)C(OC2CCCCO2)C(C)O1` (some centres not stated), the GI50 (CAKI-1) is reported as 0.0353 µM (active), the GI50 (CCRF-CEM) is reported as < 0.0375 µM (active) and the GI50 (COLO 205) is reported as 0.329 µM (active). The GI50 (HOP-62) was 0.212 µM (active), the GI50 (IGROV-1) was 0.424 µM (active) and the GI50 (MCF7) was 0.0311 µM (active). For the same compound, the GI50 (NCI-H226) was 0.0805 µM (active), the GI50 (NCI-H460) was < 0.01 µM (active) and the GI50 (OVCAR-4) was 0.659 µM (active). The GI50 (OVCAR-8) was 0.267 µM (active), the GI50 (RXF 393) was 0.43 µM (active) and the GI50 (SF-295) was 0.0483 µM (active). The GI50 (SF-539) was 0.123 µM (active), the GI50 (SK-MEL-5) was 0.115 µM (active) and the GI50 (SW-620) was 0.0598 µM (active). For the same compound, the GI50 (U-251) was 0.0658 µM (active), the GI50 (UACC-257) was 0.995 µM (active) and the GI50 (UACC-62) was 0.208 µM (active). For the same compound, the GI50 (UO-31) was 1.48 µM (inactive).

In the case of `C=CCOC(=O)c1c(C)[n+]([O-])c2cc(Cl)c(Cl)cc2[n+]1[O-]`, the GI50 (CAKI-1) is reported as 19.2 µM (inactive), the GI50 (CCRF-CEM) is reported as 17.3 µM (inactive) and the GI50 (COLO 205) is reported as 17.9 µM (inactive). The GI50 (HOP-62) was 25.5 µM (inactive), the GI50 (IGROV-1) was 4.62 µM (inactive) and the GI50 (MCF7) was 20.5 µM (inactive). The GI50 (NCI-H226) was 19.1 µM (inactive), the GI50 (NCI-H460) was 18.7 µM (inactive) and the GI50 (OVCAR-4) was 7.23 µM (inactive). The GI50 (OVCAR-8) was 19.4 µM (inactive), the GI50 (PC-3) was 31.6 µM (inactive) and the GI50 (SF-295) was 32.6 µM (inactive). For the same compound, the GI50 (SF-539) was 21.8 µM (inactive), the GI50 (SK-MEL-5) was 19 µM (inactive) and the GI50 (U-251) was 31.8 µM (inactive). For the same compound, the GI50 (UACC-257) was 18.7 µM (inactive), the GI50 (UACC-62) was 20.2 µM (inactive) and the GI50 (UO-31) was 23.3 µM (inactive).

In the case of `FC(F)(F)c1ccc2c(c1)nc(Cc1ccc(Cl)cc1)n2CC1CCCN2CCCCC12` (configuration not stated), the GI50 (CAKI-1) is reported as 14.8 µM (inactive), the GI50 (COLO 205) is reported as 3.96 µM (inactive) and the GI50 (HOP-62) is reported as 14.1 µM (inactive). The GI50 (IGROV-1) was 10.4 µM (inactive), the GI50 (MCF7) was 10.2 µM (inactive) and the GI50 (NCI-H226) was 11.9 µM (inactive). For the same compound, the GI50 (NCI-H460) was 7.66 µM (inactive), the GI50 (OVCAR-4) was 12.2 µM (inactive) and the GI50 (OVCAR-8) was 11.3 µM (inactive). For the same compound, the GI50 (PC-3) was 8.65 µM (inactive), the GI50 (RXF 393) was 10.3 µM (inactive) and the GI50 (SF-295) was 10.5 µM (inactive). The GI50 (SK-MEL-5) was 3.89 µM (inactive), the GI50 (SW-620) was 13.2 µM (inactive) and the GI50 (U-251) was 8.24 µM (inactive). The GI50 (UACC-257) was 2.92 µM (inactive), the GI50 (UACC-62) was 2.89 µM (inactive) and the GI50 (UO-31) was 0.0194 µM (active).

Reference: ChEMBL document CHEMBL1201862, “PubChem BioAssay data set” (2004)
